Measured values taken from US6617326B2 (dated 2003).

melting point	SMILES
156 to 159 °C	CC(C)(F)c1cnn2c(-c3ccc(F)c(-c4ccc(F)cc4C#N)c3)cnc2n1
200 to 201 °C	N#Cc1ccc(F)cc1-c1cc(-c2cnc3nc(C(F)(F)F)cnn23)ccc1F
215 °C	CC(C)(O)c1cnn2c(-c3ccc(F)c(-c4ccc(F)cc4C#N)c3)cnc2n1
175 °C	CC(C)(O)c1cnn2c(-c3cccc(-c4ccc(F)cc4C#N)c3)cnc2n1
